# From ChEMBL document CHEMBL1133582, “Water-soluble phosphate prodrugs of 1-propargyl-8-styrylxanthine derivatives, A(2A)-selective adenosine receptor antagonists” (J Med Chem, 2000)
# Columns and labels:
# Adenosine receptor A2b = molecular target: T1, Adenosine receptor A2b (Homo sapiens, UniProt P29275); assay: Inhibition of NECA-induced stimulation of adenylate cyclase at human adenosine A2B receptor; type: functional
# T1 sequence (P29275 whole entry): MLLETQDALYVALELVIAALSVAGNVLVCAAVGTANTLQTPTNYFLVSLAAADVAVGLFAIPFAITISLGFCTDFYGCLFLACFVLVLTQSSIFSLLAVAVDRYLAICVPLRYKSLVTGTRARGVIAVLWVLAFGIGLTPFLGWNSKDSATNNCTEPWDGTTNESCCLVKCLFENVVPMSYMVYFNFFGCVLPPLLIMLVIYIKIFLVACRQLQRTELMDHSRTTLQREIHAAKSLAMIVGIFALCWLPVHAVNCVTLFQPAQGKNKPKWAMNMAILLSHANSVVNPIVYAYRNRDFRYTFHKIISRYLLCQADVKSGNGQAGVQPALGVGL
# Adenosine receptor A3 = molecular target: T2, Adenosine receptor A3 (Homo sapiens, UniProt P0DMS8); assay: Binding affinity against human adenosine A3 receptor in CHO cell membranes using [3H]NECA
# T2 sequence (P0DMS8 whole entry): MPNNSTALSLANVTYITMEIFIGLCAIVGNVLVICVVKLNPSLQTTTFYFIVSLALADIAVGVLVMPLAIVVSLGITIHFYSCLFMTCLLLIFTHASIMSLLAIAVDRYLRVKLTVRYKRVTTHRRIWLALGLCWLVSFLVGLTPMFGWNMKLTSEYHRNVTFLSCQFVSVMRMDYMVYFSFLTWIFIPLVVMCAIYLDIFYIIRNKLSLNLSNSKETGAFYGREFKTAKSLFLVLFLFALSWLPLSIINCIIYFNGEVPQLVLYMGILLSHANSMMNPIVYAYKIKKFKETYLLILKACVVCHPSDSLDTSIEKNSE
# Adenosine receptor A1 [1] = molecular target: T3, Adenosine receptor A1 (Rattus norvegicus, UniProt P25099); assay: Binding affinity against adenosine A1 receptor of rat without and after pre-incubation with alkaline phosphatase
# T3 sequence (P25099 whole entry): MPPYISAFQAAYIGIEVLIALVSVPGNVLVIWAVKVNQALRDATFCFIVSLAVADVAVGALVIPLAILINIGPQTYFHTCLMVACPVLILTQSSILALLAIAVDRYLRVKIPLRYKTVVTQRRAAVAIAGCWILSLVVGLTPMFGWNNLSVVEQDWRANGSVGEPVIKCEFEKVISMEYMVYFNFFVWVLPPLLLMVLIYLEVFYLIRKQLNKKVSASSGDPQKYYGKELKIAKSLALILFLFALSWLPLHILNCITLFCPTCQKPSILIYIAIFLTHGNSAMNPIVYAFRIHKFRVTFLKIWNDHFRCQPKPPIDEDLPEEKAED
# Adenosine receptor A1 [2] = molecular target: T3, Adenosine receptor A1; assay: Binding affinity against adenosine A1 receptor of rat brain cortical membranes using [3H]CHA
# Adenosine receptor A2a [3] = molecular target: Adenosine receptor A2a (Rattus norvegicus, UniProt P30543); assay: Binding affinity against adenosine A2A receptor of rat brain striatal membranes using [3H]CGS-21680
# Adenosine receptor A2a [4] = molecular target: T4, Adenosine receptor A2a (Homo sapiens, UniProt P29274)
# Description: Binding affinity against human post-mortem brain adenosine A2A receptor using nuclei caudati and [3H]-CGS-21,680
# Adenosine receptor A2a [5] = molecular target: T4, Adenosine receptor A2a; remark: listed apart in the source
# Description: Binding affinity against human adenosine A2A receptor using [3H]CGS-21680 (95% confidence)
# Adenosine receptor A1 [6] = molecular target: T5, Adenosine receptor A1 (Homo sapiens, UniProt P30542); assay: Binding affinity against human adenosine A1 receptor using [3H]-CCPA (95% confidence)
# T5 sequence (P30542 whole entry): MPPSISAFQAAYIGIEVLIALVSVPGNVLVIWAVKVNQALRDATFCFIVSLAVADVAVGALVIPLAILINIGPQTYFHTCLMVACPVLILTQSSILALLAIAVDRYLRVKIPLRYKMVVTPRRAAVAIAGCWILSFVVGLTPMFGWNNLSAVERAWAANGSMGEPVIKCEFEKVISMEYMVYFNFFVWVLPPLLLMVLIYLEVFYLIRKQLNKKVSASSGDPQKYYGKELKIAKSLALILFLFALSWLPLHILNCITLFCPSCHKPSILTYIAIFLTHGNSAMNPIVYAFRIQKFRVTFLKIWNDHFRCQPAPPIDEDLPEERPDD
# Sequence of Adenosine receptor A2a (Rattus norvegicus, UniProt P30543) (P30543 whole entry): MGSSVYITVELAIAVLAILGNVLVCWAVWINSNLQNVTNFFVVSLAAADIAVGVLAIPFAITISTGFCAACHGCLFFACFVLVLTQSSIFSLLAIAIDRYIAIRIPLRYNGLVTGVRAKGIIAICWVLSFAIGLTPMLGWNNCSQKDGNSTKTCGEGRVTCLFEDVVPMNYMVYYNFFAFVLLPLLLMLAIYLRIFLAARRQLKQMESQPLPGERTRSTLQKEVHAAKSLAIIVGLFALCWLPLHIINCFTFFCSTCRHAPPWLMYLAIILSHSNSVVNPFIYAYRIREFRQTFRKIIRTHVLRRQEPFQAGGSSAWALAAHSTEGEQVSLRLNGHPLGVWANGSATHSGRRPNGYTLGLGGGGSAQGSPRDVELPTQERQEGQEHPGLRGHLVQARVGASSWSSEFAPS
# T4 sequence (P29274 whole entry): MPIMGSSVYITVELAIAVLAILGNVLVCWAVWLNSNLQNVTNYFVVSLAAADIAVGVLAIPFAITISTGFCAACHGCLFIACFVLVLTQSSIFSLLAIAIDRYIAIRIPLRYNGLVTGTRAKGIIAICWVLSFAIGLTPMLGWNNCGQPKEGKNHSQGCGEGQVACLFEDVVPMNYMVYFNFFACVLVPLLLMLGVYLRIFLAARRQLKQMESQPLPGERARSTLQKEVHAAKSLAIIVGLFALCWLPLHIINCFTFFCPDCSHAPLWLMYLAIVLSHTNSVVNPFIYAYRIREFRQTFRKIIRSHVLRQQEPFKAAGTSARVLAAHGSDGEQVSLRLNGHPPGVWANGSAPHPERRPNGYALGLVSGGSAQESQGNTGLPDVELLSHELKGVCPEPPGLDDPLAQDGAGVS
Compound,Ki (Adenosine receptor A1 [2]) [nM],Ki (Adenosine receptor A2a [3]) [nM],also measured
C#CCn1c(=O)c2c(nc(/C=C/c3cccc(Br)c3)n2C)n(C)c1=O,–,–,Ki (Adenosine receptor A2b): > 10000 nM; Ki (Adenosine receptor A3): > 10000 nM
C#CCn1c(=O)c2c(nc(/C=C/c3cccc(OC)c3)n2C)n(CCCOP(=O)(O)O)c1=O,–,–,Ki (Adenosine receptor A1 [1]): 1120 nM
C#CCn1c(=O)c2c(nc(/C=C/c3cccc(Br)c3)n2C)n(CCCO)c1=O,625,13,–
C#CCn1c(=O)c2c(nc(/C=C/c3cccc(O)c3)n2C)n(C)c1=O,940,21,–
C#CCn1c(=O)c2c(nc(/C=C/c3cccc(Br)c3)n2C)n(CCO)c1=O,1280,25,–
C#CCn1c(=O)c2c(nc(/C=C/c3cccc(N)c3)n2C)n(C)c1=O,1070,42,–
C#CCn1c(=O)c2c(nc(/C=C/c3cccc(OC)c3)n2C)n(CCO)c1=O,1040,39,–
C#CCn1c(=O)c2c(nc(/C=C/c3cccc(OC)c3)n2C)n(C)c1=O,1280,12,–
C#CCn1c(=O)c2c(nc(/C=C/c3cccc(OC)c3)n2C)n(CCCO)c1=O,900,8,Ki (Adenosine receptor A2a [4]): 15 nM; Ki (Adenosine receptor A2a [5]): 5 nM; Ki (Adenosine receptor A2b): > 10000 nM; Ki (Adenosine receptor A3): > 10000 nM; Ki (Adenosine receptor A1 [6]): 2500 nM
